Results: patent US10294202B2, “Pyrrolidinones as herbicides” (FMC Corporation, priority 2013, dated 2019)

How the values were obtained:
wheat = test: Test A pre-/postemergence herbicide test; assay type: in vivo, Triticum aestivum; conditions: for Wheat plant response rating: Preemergence, visual rating on 0 to 100 scale (0 no effect, 100 complete control)
How it was run: (§1)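 Approximately 10 days after treatment in the greenhouse, plants were compared with untreated controls and given a 0–100 visual injury rating. Applications: preemergence directed soil spray; postemergence on 2–10 cm plants at the one- to two-leaf stage.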

pigweed = test: Test A pre-/postemergence herbicide test; assay type: in vivo, Amaranthus retroflexus; conditions: for Pigweed plant response rating: Preemergence, visual rating on 0 to 100 scale (0 no effect, 100 complete control)
How it was run: as §1

velvetleaf = test: Test A pre-/postemergence herbicide test; assay type: in vivo, Abutilon theophrasti; conditions: for Velvetleaf plant response rating: Preemergence, visual rating on 0 to 100 scale (0 no effect, 100 complete control)
How it was run: as §1

ducksalad = test: Test C flooded paddy test; assay type: in vivo, Heteranthera limosa; conditions: Flood
How it was run: (§2)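 2-leaf stage; flood 3 cm over soil; compound into paddy water; depth held; greenhouse 13–15 d; visual % control vs untreated (0 = none, 100 = complete); "-" = not tested.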

morningglory = test: Test A pre-/postemergence herbicide test; assay type: in vivo, Ipomoea spp.; conditions: for Morningglory plant response rating: Preemergence, visual rating on 0 to 100 scale (0 no effect, 100 complete control)
How it was run: as §1

sedge, umbrella = test: Test C flooded paddy test; assay type: in vivo, Cyperus difformis; conditions: Flood
How it was run: as §2

rice = test: Test C flooded paddy test; assay type: in vivo, Oryza sativa; conditions: Flood
How it was run: as §2

barnyardgrass [1] = test: Test A pre-/postemergence herbicide test; assay type: in vivo, Echinochloa crus-galli; conditions: for Barnyardgrass plant response rating: Preemergence, visual rating on 0 to 100 scale (0 no effect, 100 complete control)
How it was run: as §1

corn = test: Test A pre-/postemergence herbicide test; assay type: in vivo, Zea mays; conditions: for Corn plant response rating: Preemergence, visual rating on 0 to 100 scale (0 no effect, 100 complete control)
How it was run: as §1

crabgrass, large = test: Test A pre-/postemergence herbicide test; assay type: in vivo, Digitaria sanguinalis; conditions: for Crabgrass, Large plant response rating: Preemergence, visual rating on 0 to 100 scale (0 no effect, 100 complete control)
How it was run: as §1

barnyardgrass [2] = test: Test C flooded paddy test; assay type: in vivo, Echinochloa crus-galli; conditions: Flood
How it was run: as §2

giant foxtail = test: Test A pre-/postemergence herbicide test; assay type: in vivo, Setaria faberii; conditions: for Foxtail, Giant plant response rating: Preemergence, visual rating on 0 to 100 scale (0 no effect, 100 complete control)
How it was run: as §1

[3] = Postemergence, 500 g ai/ha, 0 to 100 scale (0 no effect, 100 complete control)
[4] = preemergence, 500 g ai/ha, 0 to 100 scale
[5] = 31 g ai/ha, scale of 0 to 100 where 0 is no effect and 100 is complete control, 13 to 15 days
[6] = 62 g ai/ha, scale of 0 to 100 where 0 is no effect and 100 is complete control, 13 to 15 days
[7] = 125 g ai/ha, scale of 0 to 100 where 0 is no effect and 100 is complete control, 13 to 15 days
[8] = Postemergence, 125 g ai/ha, 0 to 100 scale, 0 no effect, 100 complete control
[9] = preemergence, 500 g ai/ha, 0 to 100 scale (0 no effect, 100 complete control)

O=C1NCC(c2cccc(F)c2)C1C(=O)Nc1ccccc1C(F)(F)F (racemic) [Compound 2]
90: Crabgrass, Large plant response rating (crabgrass, large; 125 g ai/ha) | Plant response rating, Crabgrass, Large (crabgrass, large; [4]) | Foxtail, Giant plant response rating (giant foxtail; 125 g ai/ha) | Plant response rating, Foxtail, Giant (giant foxtail; [4])
0: Plant response rating, Wheat (wheat; [3]) | Wheat plant response rating (wheat; 125 g ai/ha) | Plant response rating, Wheat (wheat; [4]) | Plant response rating, Pigweed (pigweed; [3]) | Pigweed plant response rating (pigweed; 125 g ai/ha) | Plant response rating, Pigweed (pigweed; [4]) | Plant response rating, Velvetleaf (velvetleaf; [3]) | Velvetleaf plant response rating (velvetleaf; 125 g ai/ha) | Plant response rating, Velvetleaf (velvetleaf; [4]) | Plant response rating, Ducksalad (ducksalad; [5]) | Plant response rating, Ducksalad (ducksalad; [6]) | Plant response rating, Ducksalad (ducksalad; [7]) | Plant response rating, Ducksalad (ducksalad; 250 g ai/ha, scale 0 to 100) | Plant response rating, Morningglory (morningglory; [3]) | Morningglory plant response rating (morningglory; 125 g ai/ha) | Plant response rating, Morningglory (morningglory; [4]) | Plant response rating, Sedge, Umbrella (sedge, umbrella; [5]) | Plant response rating, Sedge, Umbrella (sedge, umbrella; [6]) | Plant response rating, Sedge, Umbrella (sedge, umbrella; [7]) | Plant response rating, Sedge, Umbrella (sedge, umbrella; 250 g ai/ha, scale 0 to 100) | Plant response rating, Rice (rice; [5]) | Plant response rating, Rice (rice; [6]) | Plant response rating, Rice (rice; [7]) | Plant response rating, Rice (rice; 250 g ai/ha, scale 0 to 100) | Plant response rating, Corn (corn; [8]) | Plant response rating, Corn (corn; [3]) | Corn plant response rating (corn; 125 g ai/ha) | Plant response rating, Corn (corn; [4]) | Plant response rating, Barnyardgrass (barnyardgrass [2]; [5]) | Plant response rating, Barnyardgrass (barnyardgrass [2]; [6]) | Plant response rating, Barnyardgrass (barnyardgrass [2]; [7]) | Plant response rating, Barnyardgrass (barnyardgrass [2]; 250 g ai/ha, scale 0 to 100)
60: Plant response rating, Barnyardgrass (barnyardgrass [1]; [3]) | Plant response rating, Barnyardgrass (barnyardgrass [1]; [9]) | Plant response rating, Foxtail, Giant (giant foxtail; [3])
30: Plant response rating, Barnyardgrass (barnyardgrass [1]; [8]) | Barnyardgrass plant response rating (barnyardgrass [1]; 125 g ai/ha) | Plant response rating, Foxtail, Giant (giant foxtail; [8])
50: Plant response rating, Crabgrass, Large (crabgrass, large; [8])
70: Plant response rating, Crabgrass, Large (crabgrass, large; [3])

O=C1NCC(c2ccsc2)C1C(=O)Nc1ccccc1F (racemic) [Compound 29]
50: Plant response rating, Barnyardgrass (barnyardgrass [1]; [9])
70: Plant response rating, Crabgrass, Large (crabgrass, large; [4])
0: Plant response rating, Wheat (wheat; [8]) | Plant response rating, Wheat (wheat; [3]) | Wheat plant response rating (wheat; 125 g ai/ha) | Plant response rating, Wheat (wheat; [4]) | Plant response rating, Pigweed (pigweed; [8]) | Plant response rating, Pigweed (pigweed; [3]) | Pigweed plant response rating (pigweed; 125 g ai/ha) | Plant response rating, Pigweed (pigweed; [4]) | Plant response rating, Velvetleaf (velvetleaf; [8]) | Plant response rating, Velvetleaf (velvetleaf; [3]) | Velvetleaf plant response rating (velvetleaf; 125 g ai/ha) | Plant response rating, Velvetleaf (velvetleaf; [4]) | Plant response rating, Ducksalad (ducksalad; [5]) | Plant response rating, Ducksalad (ducksalad; [6]) | Plant response rating, Ducksalad (ducksalad; [7]) | Plant response rating, Morningglory (morningglory; [8]) | Plant response rating, Morningglory (morningglory; [3]) | Morningglory plant response rating (morningglory; 125 g ai/ha) | Plant response rating, Morningglory (morningglory; [4]) | Plant response rating, Sedge, Umbrella (sedge, umbrella; [5]) | Plant response rating, Sedge, Umbrella (sedge, umbrella; [6]) | Plant response rating, Sedge, Umbrella (sedge, umbrella; [7]) | Plant response rating, Sedge, Umbrella (sedge, umbrella; 250 g ai/ha, scale 0 to 100) | Plant response rating, Rice (rice; [5]) | Plant response rating, Rice (rice; [6]) | Plant response rating, Rice (rice; [7]) | Plant response rating, Rice (rice; 250 g ai/ha, scale 0 to 100) | Plant response rating, Barnyardgrass (barnyardgrass [1]; [8]) | Plant response rating, Barnyardgrass (barnyardgrass [1]; [3]) | Barnyardgrass plant response rating (barnyardgrass [1]; 125 g ai/ha) | Plant response rating, Corn (corn; [8]) | Plant response rating, Corn (corn; [3]) | Corn plant response rating (corn; 125 g ai/ha) | Plant response rating, Corn (corn; [4]) | Plant response rating, Crabgrass, Large (crabgrass, large; [8]) | Plant response rating, Crabgrass, Large (crabgrass, large; [3]) | Plant response rating, Barnyardgrass (barnyardgrass [2]; [5]) | Plant response rating, Barnyardgrass (barnyardgrass [2]; [6]) | Plant response rating, Barnyardgrass (barnyardgrass [2]; [7]) | Plant response rating, Barnyardgrass (barnyardgrass [2]; 250 g ai/ha, scale 0 to 100) | Plant response rating, Foxtail, Giant (giant foxtail; [8]) | Plant response rating, Foxtail, Giant (giant foxtail; [3]) | Foxtail, Giant plant response rating (giant foxtail; 125 g ai/ha) | Plant response rating, Foxtail, Giant (giant foxtail; [4])
40: Plant response rating, Ducksalad (ducksalad; 250 g ai/ha, scale 0 to 100)
30: Crabgrass, Large plant response rating (crabgrass, large; 125 g ai/ha)
